Measured values: PubChem BioAssay (NCI)
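Five concentrations, 48 hours, 96-well plates. TGI: total growth inhibition.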 The source made the active and inactive calls. Cut-off read from the data, not from the text of the source: active = GI50 below about 0.43 µM; inactive = the rest.

Experiments:
Test in all cases: DTP human tumour cell line panel, 48 h
HCT-116 colon = tested on: HCT-116 colon
OVCAR-3 ovarian = tested on: OVCAR-3 ovarian
786-0 renal = tested on: 786-0 renal
OVCAR-4 ovarian = tested on: OVCAR-4 ovarian
UACC-62 melanoma = tested on: UACC-62 melanoma
U251 CNS = tested on: U251 CNS
LOX IMVI melanoma = tested on: LOX IMVI melanoma
SF-539 CNS = tested on: SF-539 CNS
MCF7 breast = tested on: MCF7 breast
ACHN renal = tested on: ACHN renal
SK-MEL-28 melanoma = tested on: SK-MEL-28 melanoma
HT29 colon = tested on: HT29 colon
HCC-2998 colon = tested on: HCC-2998 colon
SK-OV-3 ovarian = tested on: SK-OV-3 ovarian
HOP-62 NSCLC = tested on: HOP-62 NSCLC
A549 NSCLC = tested on: A549 NSCLC
COLO 205 colon = tested on: COLO 205 colon
MDA-MB-435 = tested on: MDA-MB-435
DU-145 prostate = tested on: DU-145 prostate
SW-620 colon = tested on: SW-620 colon
UO-31 renal = tested on: UO-31 renal
UACC-257 melanoma = tested on: UACC-257 melanoma
OVCAR-8 ovarian = tested on: OVCAR-8 ovarian
NCI-H23 lung = tested on: NCI-H23 lung
HL-60(TB) leukemia = tested on: HL-60(TB) leukemia
RPMI-8226 leukemia = tested on: RPMI-8226 leukemia
PC-3 prostate = tested on: PC-3 prostate
CCRF-CEM leukemia = tested on: CCRF-CEM leukemia
SN12C renal = tested on: SN12C renal
MDA-N = tested on: MDA-N
MDA-MB-231 breast = tested on: MDA-MB-231 breast
EKVX NSCLC = tested on: EKVX NSCLC
K-562 leukemia = tested on: K-562 leukemia
RXF 393 renal = tested on: RXF 393 renal
TK-10 renal = tested on: TK-10 renal
KM12 colon = tested on: KM12 colon
SNB-19 CNS = tested on: SNB-19 CNS
HS 578T breast = tested on: HS 578T breast
BT-549 breast = tested on: BT-549 breast
SK-MEL-5 melanoma = tested on: SK-MEL-5 melanoma
SK-MEL-2 melanoma = tested on: SK-MEL-2 melanoma
SF-268 CNS = tested on: SF-268 CNS
NCI-H460 lung = tested on: NCI-H460 lung
NCI-H226 lung = tested on: NCI-H226 lung
SNB-75 CNS = tested on: SNB-75 CNS
MOLT-4 leukemia = tested on: MOLT-4 leukemia
HCT-15 colon = tested on: HCT-15 colon
NCI-H522 lung = tested on: NCI-H522 lung
CAKI-1 renal = tested on: CAKI-1 renal
A498 renal = tested on: A498 renal
M14 melanoma = tested on: M14 melanoma
OVCAR-5 ovarian = tested on: OVCAR-5 ovarian
SR leukemia = tested on: SR leukemia
T-47D breast = tested on: T-47D breast
MALME-3M melanoma = tested on: MALME-3M melanoma
SF-295 CNS = tested on: SF-295 CNS
HOP-92 NSCLC = tested on: HOP-92 NSCLC
IGROV1 ovarian = tested on: IGROV1 ovarian
NCI/ADR-RES ovarian = tested on: NCI/ADR-RES ovarian

Measured: TGI

N#CC[C@@H](O)COc1ccccc1
not listed: HOP-92 NSCLC | IGROV1 ovarian | NCI/ADR-RES ovarian
> 100 µM: all other assays above

Cn1c(C(O)C2(c3cccnc3)SCCCS2)cc2ccccc21 (centres undefined)
not listed: SF-539 CNS | RXF 393 renal | HS 578T breast | MOLT-4 leukemia | NCI-H522 lung
> 100 µM: all other assays above

C[C@H](N)C(O)C/C=C\CC(O)/C=C/C=C\C/C=C\C/C=C\C/C=C\CCCCCCC(O)[C@H](C)N (some centres undefined)
not listed: A549 NSCLC | SK-MEL-5 melanoma | HOP-92 NSCLC | IGROV1 ovarian | NCI/ADR-RES ovarian
inactive: all other assays above
